From publication PMC10517971, “An inverse agonist of orphan receptor GPR61 acts by a G protein-competitive allosteric mechanism” (Nature Communications, 2023) come the findings set out here.

One assay has as its target Acetylcholinesterase (Homo sapiens, UniProt P22303). Put plainly: Acetylcholinesterase Assay (Ellman). It is filed as biochemical. The protocol:
(§1) 67 black 384 well flat -bottomed polystyrene plates. Compound/vehicle or standard (5 µL) were added
(§2) 68 to wells followed by His -tagged BRD4 (10 µL; 40 nM final concentration in assay). Following a
(§3) 69 15 min incubation at room temperature a propri etary Cy5 -labelled probe molecule (5 µL; 2 nM
(§4) 70 final concentration in assay) was added. Following, an additional 16 h incubation at room
(§5) 71 temperature fluorescence polarization measurements were made using an Envision plate reader
(§6) 72 (Perkin Elmer, Waltham, MA, USA) and mP values were used for analysis .
(§7) 73 Acetylcholinesterase As say
(§8) 74 The assay described is based on Ellmans method, in which thiocholine produced by the action of
(§9) 75 acetylcholinesterase forms a yellow color with 5,5'- dithiobis(2- nitrobenzoic acid). The intensity
(§10) 76 of the product color, measured at 405 nm, is proportionate to the enzyme activity in the sample.
(§11) 77 To each well of a clear 96 polystyrene plate 90 µL enzyme solution (1mU/well) or phosphate
78 buffered saline (PBS) and 10 µL compound/standard or vehicle was added. The plate was
79 incubated at room temperature for 15 min. Subsequently 100 µL of substrate/detection reagent
80 (800 µM acetylthiocholine/1mM 5,5'- dithiobis(2- nitrobenzoic acid)) was added and the plate was
81 read at the 20 min time point.
83 Human embryonic kidney (HEK) cells stably transfected with a doxycycline inducible plasmid […]
On the technique in general: DTNB colorimetry detects thiols as they appear.

The target of another assay is hERG (Homo sapiens, UniProt Q12809). Put plainly: hERG Binding Assay (fluorescence polarization, Cy3B N-desmethyl dofetilide). On the set-up: expressed in transfected cells; membrane homogenate used. The protocol:
as §1, §2, §3, §4, §5, §6, §7, §8, §9, §10, §11
78 buffered saline (PBS) and 10 µL compound/standard or vehicle was added. The plate was […]
81 read at the 20 min time point. […]
100 at room temperature for 16 h. Fluorescence polarization measurements were made using an
101 Envision plate reader (Perkin Elmer, Waltham, M A, USA) and mP values were us ed for analysis.
102 Binding Ki values were determined using the Cheng- Prusoff equation (Ki = IC50/(1+L/Kd)), where […]
Background: Block of hERG is tested as a sign of cardiac risk.

As a reminder, the IC50 is the concentration that gives 50% inhibition. The Ki is the dissociation constant of the complex between target and ligand, obtained from inhibition or displacement. The low end stands for a stronger hold on the target, the high end for a looser hold on the target.

Chain of hERG (Q12809 whole entry): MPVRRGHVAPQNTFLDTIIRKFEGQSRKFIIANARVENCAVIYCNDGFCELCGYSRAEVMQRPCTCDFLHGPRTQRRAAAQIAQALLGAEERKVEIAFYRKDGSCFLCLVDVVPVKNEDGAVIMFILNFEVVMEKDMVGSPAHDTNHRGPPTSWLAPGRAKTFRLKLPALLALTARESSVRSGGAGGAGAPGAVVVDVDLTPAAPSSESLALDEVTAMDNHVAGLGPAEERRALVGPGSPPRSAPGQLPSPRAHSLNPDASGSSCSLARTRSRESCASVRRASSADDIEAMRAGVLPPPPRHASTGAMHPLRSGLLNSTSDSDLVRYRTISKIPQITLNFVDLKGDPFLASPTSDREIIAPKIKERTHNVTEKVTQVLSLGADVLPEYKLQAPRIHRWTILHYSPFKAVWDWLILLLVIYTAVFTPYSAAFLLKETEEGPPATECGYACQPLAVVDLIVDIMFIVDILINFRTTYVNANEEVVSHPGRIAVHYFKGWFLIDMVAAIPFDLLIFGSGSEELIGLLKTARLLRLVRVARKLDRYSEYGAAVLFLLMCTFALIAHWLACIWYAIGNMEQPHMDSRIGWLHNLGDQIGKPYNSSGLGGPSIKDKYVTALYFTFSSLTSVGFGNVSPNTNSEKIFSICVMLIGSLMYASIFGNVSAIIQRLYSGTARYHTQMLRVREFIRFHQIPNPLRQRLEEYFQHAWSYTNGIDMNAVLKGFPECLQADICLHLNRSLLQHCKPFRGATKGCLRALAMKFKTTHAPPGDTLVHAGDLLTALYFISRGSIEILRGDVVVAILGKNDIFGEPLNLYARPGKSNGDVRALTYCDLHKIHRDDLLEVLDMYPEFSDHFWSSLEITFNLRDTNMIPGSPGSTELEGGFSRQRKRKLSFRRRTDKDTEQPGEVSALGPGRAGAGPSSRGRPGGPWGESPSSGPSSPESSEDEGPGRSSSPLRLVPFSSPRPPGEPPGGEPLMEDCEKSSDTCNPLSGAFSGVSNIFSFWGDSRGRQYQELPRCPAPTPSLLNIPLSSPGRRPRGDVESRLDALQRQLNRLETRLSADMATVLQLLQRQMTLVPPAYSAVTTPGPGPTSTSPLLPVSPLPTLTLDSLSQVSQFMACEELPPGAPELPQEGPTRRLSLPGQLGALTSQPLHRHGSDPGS
Chain of Acetylcholinesterase (P22303 32-614, species assumed): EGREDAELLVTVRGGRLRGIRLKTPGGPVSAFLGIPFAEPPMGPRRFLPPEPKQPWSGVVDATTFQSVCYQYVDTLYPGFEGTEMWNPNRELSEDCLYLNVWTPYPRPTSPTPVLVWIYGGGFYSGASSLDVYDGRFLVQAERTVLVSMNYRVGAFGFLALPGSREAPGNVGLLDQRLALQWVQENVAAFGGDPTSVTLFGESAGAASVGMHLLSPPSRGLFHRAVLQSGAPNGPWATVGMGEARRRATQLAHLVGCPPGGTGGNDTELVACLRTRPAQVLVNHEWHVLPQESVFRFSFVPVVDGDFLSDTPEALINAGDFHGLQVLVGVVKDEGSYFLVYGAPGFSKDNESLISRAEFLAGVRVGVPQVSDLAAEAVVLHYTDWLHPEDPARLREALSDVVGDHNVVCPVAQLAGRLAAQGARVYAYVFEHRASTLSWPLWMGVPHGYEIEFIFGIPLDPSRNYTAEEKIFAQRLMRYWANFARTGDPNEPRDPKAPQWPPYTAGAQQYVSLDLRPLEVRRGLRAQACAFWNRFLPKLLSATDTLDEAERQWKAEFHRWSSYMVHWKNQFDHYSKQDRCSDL

At Acetylcholinesterase, `CCOc1cc(C)nc(N(CCOC)S(=O)(=O)c2ccc(NCc3c(F)cncc3F)nc2OC)n1` [Compound 1] had an IC50 of more than 50 µM. In addition, the Ki at hERG is more than 80 µM.
